{"source": "patent US12383545B1", "about": "“Treatment of migraine” (priority 2018, dated 2025)", "key": {"[1]": {"tested_on": "participants with episodic migraine", "test": "Study A: Patient Global Impression of Change (PGI-C) and satisfaction with study medication", "format": "in vivo, human", "settings": "for PGI-C responders (“much better” or “very much better”), percentage / Satisfaction with study medication (“satisfied” or “extremely satisfied”), percentage: Week 12, mITT; for PGI-C response, OR (95% CI) vs placebo / Satisfaction with study medication, OR (95% CI) vs placebo: week 12", "from_the_text": "Additional prespecified responder analyses included the Patient Global Impression of Change (PGI-C), defined as “much better” or “very much better” at week 12, and satisfaction with study medication, defined as “satisfied” or “extremely satisfied” at weeks 4, 8, and 12."}, "[2]": {"settings": "human, in vivo", "description": "Data was also evaluated from Study C (described in Example 3) and Study D, a Phase 2b/3 clinical trial evaluating the efficacy, safety, and tolerability of orally administered atogepant. In Study D, after a 28 day baseline period, a total of 652 patients were randomized 1:2:2:2 to receive either atogepant 10 mg (n=94), atogepant 30 mg (n=185), atogepant 60 mg (n=187) or placebo (n=186).\nThe proportion of patients with weight decrease ≥7% at any point was 2.8% for placebo, 3.8% for atogepant 10 mg, 3.2% for atogepant 30 mg, and 4.9% for atogepant 60 mg. No patients in either study discontinued atogepant due to decreased weight."}, "[3]": {"tested_on": "Alkaline Phosphatase", "test": "Example 5: postbaseline hepatic laboratory parameter values of clinical interest, Alkaline Phosphatase", "format": "in vivo, human", "settings": "safety population", "from_the_text": "This study consisted of a 4-week screening and baseline period and a 12-week double-blind treatment period, which was followed by a 4-week safety follow-up period. Total study duration is 20-weeks.\nTo be randomized, eligible patients had to be 18 to 75 years of age (inclusive), have a history of migraine with or without aura for at least 1 year consistent with a diagnosis according to the International Classification of Headache Disorders criteria, 3rd edition, beta version, have experienced 4 to 14 migraine/probable migraine headache days and <15 headache days in the 28-day baseline period. Patients who had clinically significant hematologic, endocrine, cardiovascular, cerebrovascular, pulmonary, renal, hepatic, gastrointestinal, or neurologic disease were excluded from the study.\nA total of 834 patients were randomized to double-blind treatment (ITT population), and 825 patients took at least 1 dose of double-blind IP (safety population). […] The primary efficacy variable was the change from baseline in mean monthly migraine/probable migraine headache days across the 12-week treatment period. The secondary efficacy variables were the change from baseline in mean monthly headache days across the 12-week treatment period, proportion of patients with at least a 50% reduction in mean monthly migraine/probable migraine headache days across the 12-week treatment period, and the change from baseline in mean monthly acute medication use days across the 12-week treatment period."}, "[4]": {"settings": "week 12, range across atogepant groups"}}, "note": "Several values for one entry are separate records, joined by “and”; a condition that tells them apart may be missing. Identical values can stand only once.", "data": [{"smiles": "C[C@@H]1[C@H](c2c(F)ccc(F)c2F)C[C@H](NC(=O)c2cnc3c(c2)C[C@@]2(C3)C(=O)Nc3ncccc32)C(=O)N1CC(F)(F)F", "note": "[atogepant]", "values": [{"measurement": "PGI-C responders (“much better” or “very much better”), percentage", "setting": "[1]; 10 mg", "result": 72.1, "unit": "%"}, {"measurement": "Satisfaction with study medication (“satisfied” or “extremely satisfied”), percentage", "setting": "[1]; 10 mg", "result": 77.7, "unit": "%"}, {"measurement": "PGI-C response, OR (95% CI) vs placebo", "setting": "[1]; 10 mg", "result": 3.05}, {"measurement": "Satisfaction with study medication, OR (95% CI) vs placebo", "setting": "[1]; 10 mg", "result": 2.77}, {"measurement": "PGI-C responders (“much better” or “very much better”), percentage", "setting": "[1]; 30 mg", "result": 73.2, "unit": "%"}, {"measurement": "Satisfaction with study medication (“satisfied” or “extremely satisfied”), percentage", "setting": "[1]; 30 mg", "result": 80.3, "unit": "%"}, {"measurement": "PGI-C response, OR (95% CI) vs placebo", "setting": "[1]; 30 mg", "result": 3.33}, {"measurement": "Satisfaction with study medication, OR (95% CI) vs placebo", "setting": "[1]; 30 mg", "result": 3.44}, {"measurement": "PGI-C responders (“much better” or “very much better”), percentage", "setting": "[1]; 60 mg", "result": 76.1, "unit": "%"}, {"measurement": "Satisfaction with study medication (“satisfied” or “extremely satisfied”), percentage", "setting": "[1]; 60 mg", "result": 82.6, "unit": "%"}, {"measurement": "PGI-C response, OR (95% CI) vs placebo", "setting": "[1]; 60 mg", "result": 3.83}, {"measurement": "Satisfaction with study medication, OR (95% CI) vs placebo", "setting": "[1]; 60 mg", "result": 3.58}, {"measurement": "odds of achieving PGI-C response, times that of placebo", "setting": "[1]; each atogepant group", "result": "≥ 3", "unit": "times"}, {"measurement": "odds for being treatment satisfaction responders, times greater than placebo", "setting": "[1]; week 12, atogepant groups", "result": "2-4 times"}, {"measurement": "proportion of patients satisfied with treatment", "setting": "[1]; [4]", "result": "78%-83%"}, {"measurement": "proportion of patients who were PGI-C responders", "setting": "[1]; [4]", "result": "72%-76% and 70-80%"}, {"measurement": "TEAE Weight decreased", "setting": "[2]", "result": "5 (0.4%) n (%)"}, {"measurement": "Participants with postbaseline Alkaline Phosphatase (U/L) >=1 * ULN, (%)", "setting": "[3]; Atogepant 10 mg QD (N = 93)", "result": "(5.4) %"}, {"measurement": "Participants with postbaseline Alkaline Phosphatase (U/L) >=1 * ULN, n/N1", "setting": "[3]; Atogepant 10 mg QD (N = 93)", "result": "5/92"}, {"measurement": "Participants with postbaseline Alkaline Phosphatase (U/L) >=1.5 * ULN, (%)", "setting": "[3]; Atogepant 10 mg QD (N = 93)", "result": "(1.1) %"}, {"measurement": "Participants with postbaseline Alkaline Phosphatase (U/L) >=1.5 * ULN, n/N1", "setting": "[3]; Atogepant 10 mg QD (N = 93)", "result": "1/92"}, {"measurement": "Participants with postbaseline Alkaline Phosphatase (U/L) >=2 * ULN, (%)", "setting": "[3]; Atogepant 10 mg QD (N = 93)", "result": "(1.1) %"}, {"measurement": "Participants with postbaseline Alkaline Phosphatase (U/L) >=2 * ULN, n/N1", "setting": "[3]; Atogepant 10 mg QD (N = 93)", "result": "1/92"}, {"measurement": "Participants with postbaseline Alkaline Phosphatase (U/L) >=3 * ULN, n/N1", "setting": "[3]; Atogepant 10 mg QD (N = 93)", "result": 0}, {"measurement": "Participants with postbaseline Alkaline Phosphatase (U/L) >=5 * ULN, n/N1", "setting": "[3]; Atogepant 10 mg QD (N = 93)", "result": 0}, {"measurement": "Participants with postbaseline Alkaline Phosphatase (U/L) >=10 * ULN, n/N1", "setting": "[3]; Atogepant 10 mg QD (N = 93)", "result": 0}, {"measurement": "Participants with postbaseline Alkaline Phosphatase (U/L) >=20 * ULN, n/N1", "setting": "[3]; Atogepant 10 mg QD (N = 93)", "result": 0}, {"measurement": "Participants with postbaseline Alkaline Phosphatase (U/L) >=1 * ULN, (%)", "setting": "[3]; Atogepant 30 mg BID (N = 86)", "result": "(2.4) %"}, {"measurement": "Participants with postbaseline Alkaline Phosphatase (U/L) >=1 * ULN, n/N1", "setting": "[3]; Atogepant 30 mg BID (N = 86)", "result": "2/84"}, {"measurement": "Participants with postbaseline Alkaline Phosphatase (U/L) >=1.5 * ULN, n/N1", "setting": "[3]; Atogepant 30 mg BID (N = 86)", "result": 0}, {"measurement": "Participants with postbaseline Alkaline Phosphatase (U/L) >=2 * ULN, n/N1", "setting": "[3]; Atogepant 30 mg BID (N = 86)", "result": 0}, {"measurement": "Participants with postbaseline Alkaline Phosphatase (U/L) >=3 * ULN, n/N1", "setting": "[3]; Atogepant 30 mg BID (N = 86)", "result": 0}, {"measurement": "Participants with postbaseline Alkaline Phosphatase (U/L) >=5 * ULN, n/N1", "setting": "[3]; Atogepant 30 mg BID (N = 86)", "result": 0}, {"measurement": "Participants with postbaseline Alkaline Phosphatase (U/L) >=10 * ULN, n/N1", "setting": "[3]; Atogepant 30 mg BID (N = 86)", "result": 0}, {"measurement": "Participants with postbaseline Alkaline Phosphatase (U/L) >=20 * ULN, n/N1", "setting": "[3]; Atogepant 30 mg BID (N = 86)", "result": 0}, {"measurement": "Participants with postbaseline Alkaline Phosphatase (U/L) >=1 * ULN, (%)", "setting": "[3]; Atogepant 30 mg QD (N = 183)", "result": "(10.6) %"}, {"measurement": "Participants with postbaseline Alkaline Phosphatase (U/L) >=1 * ULN, n/N1", "setting": "[3]; Atogepant 30 mg QD (N = 183)", "result": "19/179"}, {"measurement": "Participants with postbaseline Alkaline Phosphatase (U/L) >=1.5 * ULN, (%)", "setting": "[3]; Atogepant 30 mg QD (N = 183)", "result": "(0.6) %"}, {"measurement": "Participants with postbaseline Alkaline Phosphatase (U/L) >=1.5 * ULN, n/N1", "setting": "[3]; Atogepant 30 mg QD (N = 183)", "result": "1/179"}, {"measurement": "Participants with postbaseline Alkaline Phosphatase (U/L) >=2 * ULN, n/N1", "setting": "[3]; Atogepant 30 mg QD (N = 183)", "result": 0}, {"measurement": "Participants with postbaseline Alkaline Phosphatase (U/L) >=3 * ULN, n/N1", "setting": "[3]; Atogepant 30 mg QD (N = 183)", "result": 0}, {"measurement": "Participants with postbaseline Alkaline Phosphatase (U/L) >=5 * ULN, n/N1", "setting": "[3]; Atogepant 30 mg QD (N = 183)", "result": 0}, {"measurement": "Participants with postbaseline Alkaline Phosphatase (U/L) >=10 * ULN, n/N1", "setting": "[3]; Atogepant 30 mg QD (N = 183)", "result": 0}, {"measurement": "Participants with postbaseline Alkaline Phosphatase (U/L) >=20 * ULN, n/N1", "setting": "[3]; Atogepant 30 mg QD (N = 183)", "result": 0}, {"measurement": "Participants with postbaseline Alkaline Phosphatase (U/L) >=1 * ULN, (%)", "setting": "[3]; Atogepant 60 mg BID (N = 91)", "result": "(3.4) %"}, {"measurement": "Participants with postbaseline Alkaline Phosphatase (U/L) >=1 * ULN, n/N1", "setting": "[3]; Atogepant 60 mg BID (N = 91)", "result": "3/88"}, {"measurement": "Participants with postbaseline Alkaline Phosphatase (U/L) >=1.5 * ULN, n/N1", "setting": "[3]; Atogepant 60 mg BID (N = 91)", "result": 0}, {"measurement": "Participants with postbaseline Alkaline Phosphatase (U/L) >=2 * ULN, n/N1", "setting": "[3]; Atogepant 60 mg BID (N = 91)", "result": 0}, {"measurement": "Participants with postbaseline Alkaline Phosphatase (U/L) >=3 * ULN, n/N1", "setting": "[3]; Atogepant 60 mg BID (N = 91)", "result": 0}, {"measurement": "Participants with postbaseline Alkaline Phosphatase (U/L) >=5 * ULN, n/N1", "setting": "[3]; Atogepant 60 mg BID (N = 91)", "result": 0}, {"measurement": "Participants with postbaseline Alkaline Phosphatase (U/L) >=10 * ULN, n/N1", "setting": "[3]; Atogepant 60 mg BID (N = 91)", "result": 0}, {"measurement": "Participants with postbaseline Alkaline Phosphatase (U/L) >=20 * ULN, n/N1", "setting": "[3]; Atogepant 60 mg BID (N = 91)", "result": 0}, {"measurement": "Participants with postbaseline Alkaline Phosphatase (U/L) >=1 * ULN, (%)", "setting": "[3]; Atogepant 60 mg QD (N = 186)", "result": "(6.6) %"}, {"measurement": "Participants with postbaseline Alkaline Phosphatase (U/L) >=1 * ULN, n/N1", "setting": "[3]; Atogepant 60 mg QD (N = 186)", "result": "12/181"}, {"measurement": "Participants with postbaseline Alkaline Phosphatase (U/L) >=1.5 * ULN, n/N1", "setting": "[3]; Atogepant 60 mg QD (N = 186)", "result": 0}, {"measurement": "Participants with postbaseline Alkaline Phosphatase (U/L) >=2 * ULN, n/N1", "setting": "[3]; Atogepant 60 mg QD (N = 186)", "result": 0}, {"measurement": "Participants with postbaseline Alkaline Phosphatase (U/L) >=3 * ULN, n/N1", "setting": "[3]; Atogepant 60 mg QD (N = 186)", "result": 0}, {"measurement": "Participants with postbaseline Alkaline Phosphatase (U/L) >=5 * ULN, n/N1", "setting": "[3]; Atogepant 60 mg QD (N = 186)", "result": 0}, {"measurement": "Participants with postbaseline Alkaline Phosphatase (U/L) >=10 * ULN, n/N1", "setting": "[3]; Atogepant 60 mg QD (N = 186)", "result": 0}, {"measurement": "Participants with postbaseline Alkaline Phosphatase (U/L) >=20 * ULN, n/N1", "setting": "[3]; Atogepant 60 mg QD (N = 186)", "result": 0}]}]}
